Test results reported in patent EP4678634A1, “ANDROGEN RECEPTOR MODULATORS AND USES THEREOF” (Haihe Biopharma Co., Ltd., priority 2023, dated 2024).

Target: T1, Androgen receptor (AR) (Homo sapiens, UniProt P10275)
T1 construct: expressed in transfected cells; host or cells: HEK293T (AR+ARE/Luc)
T1 sequence (P10275 1-920): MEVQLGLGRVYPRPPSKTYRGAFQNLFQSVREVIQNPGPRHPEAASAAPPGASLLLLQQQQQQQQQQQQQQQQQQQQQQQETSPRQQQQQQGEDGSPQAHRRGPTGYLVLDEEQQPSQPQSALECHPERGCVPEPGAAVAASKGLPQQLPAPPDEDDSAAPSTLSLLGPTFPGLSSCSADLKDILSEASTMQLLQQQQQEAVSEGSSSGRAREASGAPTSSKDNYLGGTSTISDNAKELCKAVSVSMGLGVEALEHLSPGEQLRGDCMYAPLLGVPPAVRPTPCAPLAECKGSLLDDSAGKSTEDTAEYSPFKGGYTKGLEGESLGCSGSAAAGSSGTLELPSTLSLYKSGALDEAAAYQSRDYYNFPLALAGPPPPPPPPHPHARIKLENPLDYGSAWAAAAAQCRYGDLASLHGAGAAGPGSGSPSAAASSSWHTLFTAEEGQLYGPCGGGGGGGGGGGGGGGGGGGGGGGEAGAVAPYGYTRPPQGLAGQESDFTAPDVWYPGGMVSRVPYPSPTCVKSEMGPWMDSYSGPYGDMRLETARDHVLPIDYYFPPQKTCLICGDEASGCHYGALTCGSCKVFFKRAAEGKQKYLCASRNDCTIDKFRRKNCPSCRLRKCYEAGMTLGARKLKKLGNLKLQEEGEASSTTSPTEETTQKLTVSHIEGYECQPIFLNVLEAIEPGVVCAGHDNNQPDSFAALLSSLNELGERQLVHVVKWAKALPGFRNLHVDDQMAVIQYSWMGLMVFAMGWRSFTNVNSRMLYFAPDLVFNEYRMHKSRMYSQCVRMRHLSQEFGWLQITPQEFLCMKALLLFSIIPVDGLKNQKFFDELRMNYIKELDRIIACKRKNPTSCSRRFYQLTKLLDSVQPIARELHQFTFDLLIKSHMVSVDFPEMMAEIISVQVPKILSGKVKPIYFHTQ
Test: Androgen receptor (AR) reporter gene assay (luciferase)
Type: cell-based
Settings: AR+ARE/Luc HEK293T cells, stimulated with 11-KDHT, 24h incubation, Bright-Lite luminescence; read-out: HEK293 Luc IC50
Description: Androgen receptor (AR) reporter gene assay
Experimental reagents: 11-Ketodihydrotestosterone (11-KDHT) was purchased from MCE (cat.HY-135794); Enzalutamide (MDV3100) was purchased from Selleck (cat.S1250); Bright-Lite Luciferase Assay kit was purchased from Vazyme (cat.DD1204-01);
• 1. dissolve the described compounds in 100% DMSO at a final concentration of 10 mM. 100 nL each of 400X compound to be tested and 400X 11-KDHT (40 nM) were added to a 384-well assay plate with Echo, followed by 20 µL of complete medium, and centrifuged at 1000 rpm for 1 min, and oscillated for 20-30 min at room temperature. • 2. 20 µL of AR+ARE/Luc HEK293T cells (10,000 cells/well) were inoculated into the assay plate containing the compounds and 11-KDHT, and centrifuged at 1000 rpm for 1 min. The assay plate was incubated in a 37 °C CO2 incubator for 24h. • 3. 40 µL of Bright-Lite assay reagent was transferred to each well of the assay plate, centrifuged at 1000 rpm for 1 min, and shaken for 2 min at room temperature protected from light. Luminescence values (RLU) were measured using Envision. Based on the results, the IC50 values of the compounds described were calculated. Table 1 HEK293-Luc% inhibition IC50 of representative compounds

SMILES	IC50 [nM]
Cn1ccc(NC2CCCc3c2cc(C#N)c(OCCCl)c3Cl)cc1=O (centres unmarked) [HANT-261]	500 to 1000
N#Cc1ccc(NC2CCCc3c2cc(C#N)c(OCCCl)c3Cl)cn1 (centres unmarked) [HANT-262]	1 to 500
CNC(=O)c1ccc(NC2CCCc3c2cc(C#N)c(OCCCl)c3Cl)cn1 (centres unmarked) [HANT-263]	1 to 500
N#Cc1cc2c(c(Cl)c1OCCCl)CCCC2NC1CCCOC1 (centres unmarked) [HANT-264]	> 2000
COc1cncc(NC2CCCc3c2cc(C#N)c(OCCCl)c3Cl)c1 (centres unmarked) [HANT-266]	1 to 500
N#Cc1cc2c(c(Cl)c1OCCCl)CCCC2Oc1cccnc1 (centres unmarked) [HANT-267]	1 to 500
CCCOc1c(C#N)cc2c(c1Cl)CCCC2Nc1ccc2[nH]ncc2c1 (centres unmarked) [HANT-268, 8-((1H-indazol-5-yl)amino)-4-chloro-3-propoxy-5,6,7,8-tetrahydronaphthalene-2-carbonitrile]	1 to 500
CCOc1c(C#N)cc2c(c1Cl)CCCC2Nc1ccc2[nH]ncc2c1 (centres unmarked) [HANT-269, 8-((1H-indazol-5-yl)amino)-4-chloro-3-ethoxy-5,6,7,8-tetrahydronaphthalene-2-carbonitrile]	1 to 500
COc1ccc(C2CCCc3c2cc(C#N)c(OCCCl)c3Cl)cc1 (centres unmarked) [HANT-334]	1 to 500
COc1ccc(C2CCCc3c2cc(C#N)c(OCCCl)c3Cl)cn1 (centres unmarked) [HANT-335]	1 to 500
Oc1ccc(C2CCCc3c2cc(Cl)c(OCCCl)c3Cl)cc1 (centres unmarked) [HANT-336A, 4-(5,7-dichloro-6-(2-chloroethoxy)-1,2,3,4-tetrahydronaphthalen-1-yl)phenol]	500 to 1000
Oc1ccc(C2CCCc3c2cc(Cl)c(OCCCl)c3Cl)cc1 (centres unmarked) [HANT-336B, 4-(5,7-dichloro-6-(2-chloroethoxy)-1,2,3,4-tetrahydronaphthalen-1-yl)phenol]	1 to 500
N#Cc1cc2c(c(Cl)c1OCCCl)CCCC2c1ccc2c(c1)C(=O)NC2 (centres unmarked) [HANT-948]	500 to 1000
Cn1nc(C2CCCc3c2cc(C#N)c(OCCCl)c3Cl)c2ccccc21 (centres unmarked) [HANT-949]	1000 to 2000
Cn1cc2c(n1)CN(C1CCCc3c1cc(C#N)c(OCCCl)c3Cl)C2 (centres unmarked) [HANT-950, 4-Chloro-3-(2-chloroethoxy)-8-(2-methyl-2,6-dihydropyrrolo[3,4-c]pyrazol-5(4H)-yl)-5,6,7,8-t etrahydronaphthalene-2-carbonitrile]	1000 to 2000
N#Cc1cc2c(c(Cl)c1OCCCl)CCCC2c1ccc2c(c1)C(=O)NC2=O (centres unmarked) [HANT-977]	1 to 500
N#Cc1cc2c(c(Cl)c1OCCCl)CCCC2c1ccc2n[nH]c(=O)n2c1 (centres unmarked) [HANT-978]	1 to 500
N#Cc1cc2c(c(Cl)c1OCCCl)CCCC2c1cc2c3c(cccc3c1)NC2=O (centres unmarked) [HANT-979, 4-Chloro-3-(2-chloroethoxy)-8-(2-oxo-1,2-dihydrobenzo[cd]indol-4-yl)-5,6,7,8-tetrahydronapht halene-2-carbonitrile]	500 to 1000
CN1C(=O)c2ccc(C3CCCc4c3cc(C#N)c(OCCCl)c4Cl)cc2C1=O (centres unmarked) [HANT-982]	1 to 500
CN1Cc2ccc(C3CCCc4c3cc(C#N)c(OCCCl)c4Cl)cc2C1=O (centres unmarked) [HANT-983]	> 2000
